Measurements published in patent US11267826B2, “Penicillin-binding protein inhibitors” (priority 2017, dated 2022).

Key:
E. coli PBP3 = biological target: T1, E. coli PBP3 (Escherichia coli, UniProt P0AD68); experiment: Bocillin FL competition binding assay, PBP3; parameters: species or system Escherichia coli K12; conditions: 15 min pre-incubation
T1 construct: 100 μg's of total membrane protein extracts containing PBPs; endogenous in cells; host or cells: Escherichia coli K12, membrane protein fraction
T1 sequence (P0AD68 1-577): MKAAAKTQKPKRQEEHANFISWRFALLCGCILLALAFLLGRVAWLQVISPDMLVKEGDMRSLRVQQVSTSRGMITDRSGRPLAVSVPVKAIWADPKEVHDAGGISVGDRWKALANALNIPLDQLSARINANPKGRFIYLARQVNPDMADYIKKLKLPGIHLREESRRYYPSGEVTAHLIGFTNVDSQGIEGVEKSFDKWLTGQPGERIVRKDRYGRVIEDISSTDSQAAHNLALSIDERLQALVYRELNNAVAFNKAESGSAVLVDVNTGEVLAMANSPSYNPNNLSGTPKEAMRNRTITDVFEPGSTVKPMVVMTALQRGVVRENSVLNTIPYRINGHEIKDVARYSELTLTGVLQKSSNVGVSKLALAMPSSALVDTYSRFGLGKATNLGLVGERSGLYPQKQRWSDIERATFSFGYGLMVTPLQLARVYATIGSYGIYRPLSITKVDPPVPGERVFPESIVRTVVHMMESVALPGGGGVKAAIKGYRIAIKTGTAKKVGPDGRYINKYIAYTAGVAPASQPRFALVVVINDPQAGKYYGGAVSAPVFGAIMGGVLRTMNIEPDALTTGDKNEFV
Procedure: (§1) To determine the ability of test compounds to bind Penicillin Binding Proteins (PBPs), a competition binding assay using Bocillin FL (fluorescent derivative of penicillin V) was adapted from the classical method used to assess PBP potency of beta-lactams.
(§2) Penicillin binding proteins were isolated from Escherichia coli K12 by growth of Escherichia coli K12 from a single colony in 4 L of Luria-Bertani (LB) broth at 35° C. and 250 rpm to an OD600 nm of 0.5. The cells were harvested by centrifugation at 7,000×g for 10 min. at 4° C. Cells were resuspended and washed in 50 mM potassium phosphate pH 7.5. The cells were re-suspended in sonication buffer [50 mM Tris-HCl pH 7.5, 1 mM MgCl2, 1 mM beta-mercaptoethanol, and 5 μg/mL DNAse I] and sonicated by 4 passes of 30 seconds at 45 W on ice. The sample was clarified by centrifugation at 3,000×g to remove cell debris and unbroken cells and supernatant containing the membrane proteins was retained. The membrane proteins including the PBPs were further purified from soluble constituents by an ultracentrifugation step at 100,000×g for 30 min. at 4° C. The membrane proteins are washed twice with 10 mM sodium phosphate pH 7, resuspended in a volume of 5 mL, quantitated by BCA assay, adjusted to […] and frozen at −80° C. until use.
(§3) The adapted Bocillin FL competition binding method described herein incorporates a 15 min. pre-incubation of test compound with isolated PBPs to attempt to balance the difference in mechanism of inhibition between beta-lactams (largely irreversible covalent bond to active site Serine) and the boron-containing PBP inhibitor test compounds (reversible covalent bond to active site Serine). Briefly, 50 μL reactions consisted of 100 μg's of total membrane protein extracts containing PBPs incubated with a dilution series of test compound ranging from 0.005 μg/mL to 2,480 μg/mL in 10 mM sodium phosphate pH7 containing 350 mM NaCl. Thirty minute reactions at 35° C. were initiated by addition of […] Bocillin FL, quenched by addition of SDS-PAGE loading buffer containing sodium dodecyl sulfate (SDS) and heated for 15 minutes at 95° C. to denature proteins in preparation for SDS-polyacrylamide gel electrophoresis. The Bocillin FL labeled PBPs are then separated by SDS-PAGE in Novex NuPage 10% Bis-Tris pre-cast gels (Invitrogen). The SDS-PAGE gel, post-electrophoresis, is then washed in water to remove excess SDS for 10 minutes at room temperature and placed on the scanning bed of a GE Healthcare/Amersham Biosciences Storm 860 fluorescence scanner. The excitation wavelength is in the blue spectrum at 450 nm and the emission at 520 nm is captured by the instrument. Effective PBP inhibitors are detected by a reduction in Bocillin FL labeling of the particular PBP over the dose range of test compound in a dose-responsive manner. High molecular weight PBP 1a/1b are not resolved by these gels, thus we report HMW PBP binding results in μg/mL for PBPs 1a/1b combined as well as for PBP2 and PBP3.
(§4) Representative results are shown in Table 2, where A represents a potency of >1000 μg/mL, B represents a potency between 64 and 1000 μg/mL inclusive, and C represents a potency of <64 μg/mL. NT=Not Tested.

E. coli PBP2 = biological target: T2, E. coli PBP2 (Escherichia coli, UniProt P0AD65); experiment: Bocillin FL competition binding assay, PBP2; parameters: species or system Escherichia coli K12; conditions: 15 min pre-incubation
T2 construct: 100 μg's of total membrane protein extracts containing PBPs; endogenous in cells; host or cells: Escherichia coli K12, membrane protein fraction
T2 sequence (P0AD65 whole entry): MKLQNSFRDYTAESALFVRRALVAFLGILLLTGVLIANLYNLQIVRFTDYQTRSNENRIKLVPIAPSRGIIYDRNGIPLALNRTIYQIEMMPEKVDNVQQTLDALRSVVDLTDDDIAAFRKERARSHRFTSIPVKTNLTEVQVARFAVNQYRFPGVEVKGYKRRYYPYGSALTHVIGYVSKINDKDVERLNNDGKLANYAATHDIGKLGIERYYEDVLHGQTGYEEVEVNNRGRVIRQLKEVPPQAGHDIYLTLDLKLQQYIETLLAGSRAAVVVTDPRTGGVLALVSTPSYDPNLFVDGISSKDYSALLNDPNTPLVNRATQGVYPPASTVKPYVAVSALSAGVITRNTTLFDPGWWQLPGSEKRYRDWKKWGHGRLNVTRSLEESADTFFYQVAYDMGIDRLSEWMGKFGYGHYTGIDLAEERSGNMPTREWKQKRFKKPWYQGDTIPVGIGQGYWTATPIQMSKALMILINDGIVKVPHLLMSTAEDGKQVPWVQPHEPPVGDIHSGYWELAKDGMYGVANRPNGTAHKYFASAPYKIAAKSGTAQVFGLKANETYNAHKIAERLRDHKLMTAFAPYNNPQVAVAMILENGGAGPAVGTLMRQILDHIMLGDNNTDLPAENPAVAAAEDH
Procedure: as §1, §2, §3, §4

E. coli K12 PBP1a/b = experiment: Bocillin FL competition binding assay, PBP1a/1b combined; parameters: species or system Escherichia coli K12; conditions: 15 min pre-incubation, PBP 1a/1b combined
Procedure: as §1, §2, §3, §4

[1] = tested on: hyper-permeable E. coli 901C; experiment: Broth microdilution MIC assay, hyper-permeable E. coli; type: cell-based; conditions: Escherichia coli, read-out: E. coli 901C MIC
Method in brief: (§5)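 CLSI broth microdilution in cation-supplemented Mueller-Hinton broth; 2-fold serial compound dilutions inoculated at 5×10^5 CFU/mL from 3-5 h log-phase cultures. Plates incubated 16-20 hours at 37° C. MIC read visually as lowest concentration with no bacterial growth.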

S. aureus ATCC 29213 = experiment: Broth microdilution MIC assay, S. aureus; type: cell-based; conditions: Staphylococcus aureus, ATCC29213; broth microdilution, 16-20 hours at 37° C.; read-out: S. aureus 29213 MIC
Method in brief: as §5

SMILES: N#CC1CCC(NC(=O)CO/N=C(\C(=O)N[C@H]2Cc3cccc(C(=O)O)c3OB2O)c2csc(N)n2)CC1 (stereo partly drawn) [Example 62, (R)-3-((Z)-2-(2-aminothiazol-4-yl)-2-((2-(((1r,4R)-4-cyanocyclohexyl)amino)-2-oxoethoxy)imino)acetamido)-2-hydroxy-3,4-dihydro-2H-benzo[e][1,2]oxaborinine-8-carboxylic Acid]
- E. coli PBP3 Potency (E. coli PBP3): C (C represents a potency of <64 μg/mL)
- E. coli PBP2 Potency (E. coli PBP2): B (B represents a potency between 64 and 1000 μg/mL inclusive)
- E. coli K12 PBP1a/b Potency (E. coli K12 PBP1a/b): B (B represents a potency between 64 and 1000 μg/mL inclusive)
- MIC [1]: < 64 µg/mL
- MIC (S. aureus ATCC 29213): > 128 µg/mL

SMILES: Nc1nc(/C(=N/O)C(=O)N[C@H]2Cc3cc(Cl)cc(C(=O)O)c3OB2O)cs1 [Example 44, (R,Z)-3-(2-(2-aminothiazol-4-yl)-2-(hydroxyimino)acetamido)-6-chloro-2-hydroxy-3,4-dihydro-2H-benzo[e][1,2]oxaborinine-8-carboxylic Acid]
- E. coli PBP3 Potency (E. coli PBP3): B (B represents a potency between 64 and 1000 μg/mL inclusive)
- E. coli PBP2 Potency (E. coli PBP2): B (B represents a potency between 64 and 1000 μg/mL inclusive)
- E. coli K12 PBP1a/b Potency (E. coli K12 PBP1a/b): B (B represents a potency between 64 and 1000 μg/mL inclusive)
- MIC [1]: < 64 µg/mL
- MIC (S. aureus ATCC 29213): < 64 µg/mL

SMILES: N=C(N)c1ccc(OCCO/N=C(\C(=O)N[C@H]2Cc3cccc(C(=O)O)c3OB2O)c2csc(N)n2)cc1 [Example 55, (R,Z)-3-(2-(2-aminothiazol-4-yl)-2-((2-(4-carbamimidoylphenoxy)ethoxy)imino)acetamido)-2-hydroxy-3,4-dihydro-2H-benzo[e][1,2]oxaborinine-8-carboxylic Acid]
- E. coli PBP3 Potency (E. coli PBP3): C (C represents a potency of <64 μg/mL)
- E. coli PBP2 Potency (E. coli PBP2): B (B represents a potency between 64 and 1000 μg/mL inclusive)
- E. coli K12 PBP1a/b Potency (E. coli K12 PBP1a/b): C (C represents a potency of <64 μg/mL)
- MIC [1]: < 64 µg/mL
- MIC (S. aureus ATCC 29213): > 128 µg/mL

SMILES: N=C(NCCN)c1ccc(OCCO/N=C(\C(=O)N[C@H]2Cc3cccc(C(=O)O)c3OB2O)c2csc(N)n2)cc1 [Example 64, (R,Z)-3-(2-((2-(4-(N-(2-aminoethyl)carbamimidoyl)phenoxy)ethoxy)imino)-2-(2-aminothiazol-4-yl)acetamido)-2-hydroxy-3,4-dihydro-2H-benzo[e][1,2]oxaborinine-8-carboxylic Acid]
- E. coli PBP3 Potency (E. coli PBP3): C (C represents a potency of <64 μg/mL)
- E. coli PBP2 Potency (E. coli PBP2): B (B represents a potency between 64 and 1000 μg/mL inclusive)
- E. coli K12 PBP1a/b Potency (E. coli K12 PBP1a/b): C (C represents a potency of <64 μg/mL)
- MIC [1]: < 64 µg/mL
- MIC (S. aureus ATCC 29213): > 128 µg/mL

SMILES: CC(C)(O/N=C(\C(=O)N[C@H]1Cc2cccc(C(=O)O)c2OB1O)c1csc(N)n1)C(=O)N[C@@H](CO)C(=O)O [Example 74, (R)-3-((Z)-2-(2-aminothiazol-4-yl)-2-(((1-(((S)-1-carboxy-2-hydroxyethyl)amino)-2-methyl-1-oxopropan-2-yl)oxy)imino)acetamido)-2-hydroxy-3,4-dihydro-2H-benzo[e][1,2]oxaborinine-8-carboxylic Acid]
- E. coli PBP3 Potency (E. coli PBP3): C (C represents a potency of <64 μg/mL)
- E. coli PBP2 Potency (E. coli PBP2): C (C represents a potency of <64 μg/mL)
- E. coli K12 PBP1a/b Potency (E. coli K12 PBP1a/b): C (C represents a potency of <64 μg/mL)
- MIC [1]: < 64 µg/mL
- MIC (S. aureus ATCC 29213): > 128 µg/mL

SMILES: CNC(=O)C(C)O/N=C(\C(=O)N[C@H]1Cc2cccc(C(=O)O)c2OB1O)c1csc(N)n1 (stereo partly drawn) [Example 70, (3R)-3-((Z)-2-(2-aminothiazol-4-yl)-2-(((1-(methylamino)-1-oxopropan-2-yl)oxy)imino)acetamido)-2-hydroxy-3,4-dihydro-2H-benzo[e][1,2]oxaborinine-8-carboxylic Acid]
- E. coli PBP3 Potency (E. coli PBP3): C (C represents a potency of <64 μg/mL)
- E. coli PBP2 Potency (E. coli PBP2): C (C represents a potency of <64 μg/mL)
- E. coli K12 PBP1a/b Potency (E. coli K12 PBP1a/b): C (C represents a potency of <64 μg/mL)
- MIC [1]: < 64 µg/mL
- MIC (S. aureus ATCC 29213): > 128 µg/mL

SMILES: CNC(=O)CO/N=C(\C(=O)N[C@H]1Cc2cccc(C(=O)O)c2OB1O)c1csc(N)n1 [Example 57, (R,Z)-3-(2-(2-aminothiazol-4-yl)-2-((2-(methylamino)-2-oxoethoxy)imino)acetamido)-2-hydroxy-3,4-dihydro-2H-benzo[e][1,2]oxaborinine-8-carboxylic Acid]
- E. coli PBP3 Potency (E. coli PBP3): C (C represents a potency of <64 μg/mL)
- E. coli PBP2 Potency (E. coli PBP2): B (B represents a potency between 64 and 1000 μg/mL inclusive)
- E. coli K12 PBP1a/b Potency (E. coli K12 PBP1a/b): C (C represents a potency of <64 μg/mL)
- MIC [1]: < 64 µg/mL
- MIC (S. aureus ATCC 29213): > 128 µg/mL

SMILES: CN(C)C(=O)CO/N=C(\C(=O)N[C@H]1Cc2cccc(C(=O)O)c2OB1O)c1csc(N)n1 [Example 60, (R,Z)-3-(2-(2-aminothiazol-4-yl)-2-((2-(dimethylamino)-2-oxoethoxy)imino)acetamido)-2-hydroxy-3,4-dihydro-2H-benzo[e][1,2]oxaborinine-8-carboxylic Acid]
- E. coli PBP3 Potency (E. coli PBP3): C (C represents a potency of <64 μg/mL)
- E. coli PBP2 Potency (E. coli PBP2): C (C represents a potency of <64 μg/mL)
- E. coli K12 PBP1a/b Potency (E. coli K12 PBP1a/b): B (B represents a potency between 64 and 1000 μg/mL inclusive)
- MIC [1]: < 64 µg/mL
- MIC (S. aureus ATCC 29213): > 128 µg/mL

SMILES: Nc1nc(/C(=N/OCCOc2ccccc2)C(=O)N[C@H]2Cc3cccc(C(=O)O)c3OB2O)cs1 [Example 50, (R,Z)-3-(2-(2-aminothiazol-4-yl)-2-((2-phenoxyethoxy)imino)acetamido)-2-hydroxy-3,4-dihydro-2H-benzo[e][1,2]oxaborinine-8-carboxylic Acid]
- E. coli PBP3 Potency (E. coli PBP3): B (B represents a potency between 64 and 1000 μg/mL inclusive)
- E. coli PBP2 Potency (E. coli PBP2): B (B represents a potency between 64 and 1000 μg/mL inclusive)
- E. coli K12 PBP1a/b Potency (E. coli K12 PBP1a/b): B (B represents a potency between 64 and 1000 μg/mL inclusive)
- MIC [1]: < 64 µg/mL
- MIC (S. aureus ATCC 29213): 64 to 128 µg/mL

SMILES: N#Cc1ccc(NC(=O)CO/N=C(\C(=O)N[C@H]2Cc3cccc(C(=O)O)c3OB2O)c2csc(N)n2)cc1 [Example 56, (R,Z)-3-(2-(2-aminothiazol-4-yl)-2-((2-((4-cyanophenyl)amino)-2-oxoethoxy)imino)acetamido)-2-hydroxy-3,4-dihydro-2H-benzo[e][1,2]oxaborinine-8-carboxylic Acid]
- E. coli PBP3 Potency (E. coli PBP3): C (C represents a potency of <64 μg/mL)
- E. coli PBP2 Potency (E. coli PBP2): C (C represents a potency of <64 μg/mL)
- E. coli K12 PBP1a/b Potency (E. coli K12 PBP1a/b): B (B represents a potency between 64 and 1000 μg/mL inclusive)
- MIC [1]: < 64 µg/mL
- MIC (S. aureus ATCC 29213): 64 to 128 µg/mL
